Tested on: DU-145
Assay: MTT colorimetric assay, DU-145 cells
Format: cell-based
Conditions: Homo sapiens, 72 h, 3 days of culturing, mean of six determinations, read-out: IC50 (μM) In Vitro Growth Inhibition
Method: The overall growth of human cancer cell lines was determined by means of the calorimetric MTT (3-[4,5-dimethylthiazol-2-yl]-diphenyl tetrazolium bromide; Sigma) assay, as detailed previously.

Compound: CN(C)CCN1C(=O)c2cccc3cc(NC(N)=O)cc(c23)C1=O [UNBS5162, N-{2-[2-(dimethylamino)ethyl]-1,3-dioxo-2,3-dihydro-1H-benzo[de]isoquinolin-5-yl}urea]
- IC50: 16 µM

— US20090186915A1, “Compositions and methods for treatment of glioblastoma, gliosarcoma, NSCLC, and head and neck cancer” (Unibioscreen S. A., priority 2006, published 2009)
